Biological target: SARS-CoV-2 nsp5 (nsp4-5-6 WT) (Severe acute respiratory syndrome coronavirus 2, UniProt P0DTD1)
Test: cell-based

For C1=C/COCc2cc(ccc2OCCN2CCCC2)Nc2nccc(n2)-c2cccc(c2)COC/1 [Compound #9, Pacritinib (SB1518)], the “dose-response curve in Rev-Nluc assay” value was “irregular pattern”.

System: SARS-CoV-2 nsp4-5-6 C145A
Test: not given
Format: cell-based

First: CC(C)(C(=O)c1cccnc1)c1cccnc1 [compound 44, Metyrapone]
Second: CCOC(=O)C1=C(C)NC(C)=C(C(=O)OCC)C1c1ccccc1/C=C/C(=O)OC(C)(C)C [compound 3, Lacidipine]
The “Secondary screen nsp5-CA RLU (%)” value of the first is lower: 77.7 ± 2.4% for the first, 121.2 ± 7.4% for the second.

First: COc1cc(NC(=O)Nc2cccc(CNC(=O)O[C@H]3CCOC3)c2)ccc1-c1cnco1 [compound 5, Merimepodib]
Second: CC(C)(C)c1cnc(CSc2cnc(NC(=O)C3CCNCC3)s2)o1 [compound 17, SNS-032 (BMS-387032)]
The “Secondary screen nsp5-CA RLU (%)” value of the first is higher: 110.4 ± 10.8% for the first, 66.6 ± 3.4% for the second.

First: CNCc1ccc(C)c(NC(=O)c2ccc(Nc3nc(-c4ccccc4)c4ccccc4n3)cc2)c1 [compound 16, BMS-833923 (XL139)]
Second: COCCOc1ccc2c(c1)ncn2-c1ccc2cccc(N3CCC(N)CC3)c2n1 [compound 12, CP 673451]
The “Secondary screen nsp5-CA RLU (%)” value of the first is higher: 256.0 ± 74.0% for the first, 144.6 ± 10.3% for the second.

Going from C=CC(=O)Nc1cccc(Nc2nc(Nc3ccc(N4CCN(C(C)=O)CC4)cc3OC)ncc2C(F)(F)F)c1 [compound 20, Rociletinib (CO-1686. AVL-301)] to O=C(Nc1c[nH]nc1-c1nc2ccc(CN3CCOCC3)cc2[nH]1)NC1CC1 [compound 10, AT9283], the “Secondary screen nsp5-CA RLU (%)” value falls from 181.9 ± 10.4% to 71.3 ± 8.3%.

Going from O=C(NC(Cc1cc(=O)[nH]c2ccccc12)C(=O)O)c1ccc(Cl)cc1 (stereo not drawn) [compound 43, Rebamipide] to Cc1nc(Nc2ncc(C(=O)Nc3c(C)cccc3Cl)s2)cc(N2CCN(CCO)CC2)n1 [compound 21, Dasatinib (BMS-354825)], the “Secondary screen nsp5-CA RLU (%)” value rises from 71.6 ± 6.5% to 249.1 ± 19.9%.

Going from C=CC(=O)Nc1cc(Nc2nccc(-c3cn(C)c4ccccc34)n2)c(OC)cc1N(C)CCN(C)C [compound 23, Osimertinib (AZD9291)] to UNC2881 [compound 1], the “Secondary screen nsp5-CA RLU (%)” value rises from 43.2 ± 6.7% to 295.3 ± 15.8%.

For C1=C/COCc2cc(ccc2OCCN2CCCC2)Nc2nccc(n2)-c2cccc(c2)COC/1 [Compound #9, Pacritinib (SB1518)], the “Secondary screen nsp5-CA RLU (%)” value was 98.3 ± 4.0%.

In the case of Cc1sc2c(c1C)C(c1ccc(Cl)cc1)=N[C@@H](CC(=O)Nc1ccc(O)cc1)c1nnc(C)n1-2 [compound 7, OTX015], the “Secondary screen nsp5-CA RLU (%)” value is reported as greater than 250%.
In the case of Cc1cnc(Nc2ccc(OCCN3CCCC3)cc2)nc1Nc1cccc(S(=O)(=O)NC(C)(C)C)c1 [compound 6, Fedratinib (SAR302503)], the “Secondary screen nsp5-CA RLU (%)” value is reported as greater than 250%.
In the case of CC[C@@H]1C(=O)N(C)c2cnc(Nc3ccc(C(=O)N[C@H]4CC[C@H](N5CCN(CC6CC6)CC5)CC4)cc3OC)nc2N1C(C)C [compound 4, Volasertib (BI6727)], the “Secondary screen nsp5-CA RLU (%)” value is reported as greater than 250%.
In the case of Cc1cnc(Nc2ccc(N3CCN(C)CC3)cc2)nc1Nc1cccc(S(=O)(=O)NC(C)(C)C)c1 [compound 8, TG101209], the “Secondary screen nsp5-CA RLU (%)” value is reported as greater than 250%.

From publication PMC8906008 (Antiviral Research, 2022)
